Values after ≈ are worked out from the molar mass of the structure shown.
Legend:
Type in all cases: cell-based, Staphylococcus aureus
[1] = tested on: Staph aureus 1146; assay: MIC, microtiter broth dilution (CLSI M7-A7), Assay 1, Table 12 column B, no serum; conditions: for MIC: Staphylococcus aureus, 1146, Staph aureus 1146, Assay 1, no serum; for MIC, column B: Staph aureus 1146, Assay 1, no serum
Method in brief: (§1)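 Compounds were prepared in DMSO at 10 mg/ml, then tested by microtiter broth dilution following CLSI M7-A7. Growth was scored visually, and the MIC taken as the lowest concentration without macroscopically visible growth. Where tested repeatedly, the geometric mean is given.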

[2] = tested on: Staph aureus 1146; assay: MIC in Mueller-Hinton Broth with 50% pooled inactivated human serum, Assay 1, Table 12; conditions: for MIC: Staphylococcus aureus, 1146, Staph aureus 1146, Assay 1, 50% human serum, read-out: MIC, column C; for MIC, column C: Staph aureus 1146, Assay 1, 50% human serum
Method in brief: as §1

[3] = tested on: Staph aureus 1095 MRSA; assay: MIC, microtiter broth dilution (CLSI M7-A7), Assay 1, Table 12 column A, no serum; conditions: Assay 1, no serum; for MIC: Staphylococcus aureus, MRSA
Method in brief: as §1

[4] = tested on: Staph aureus 2811; assay: MIC, microtiter broth dilution (CLSI M7-A7), Assay 1, Table 12 column D, no serum; conditions: for MIC: Staphylococcus aureus, 2811, Staph aureus 2811, Assay 1, no serum; for MIC, column D: Staph aureus 2811, Assay 1, no serum
Method in brief: as §1

[5] = tested on: Staph aureus 2812; assay: MIC, microtiter broth dilution (CLSI M7-A7), Assay 1, Table 12 column E, no serum; conditions: for MIC: Staphylococcus aureus, 2812, Staph aureus 2812, Assay 1, no serum; for MIC, column E: Staph aureus 2812, Assay 1, no serum
Method in brief: as §1

SMILES	MIC [1] [µg/mL]	MIC [2] [µg/mL]	MIC [3] [µg/mL]	MIC [4] [µg/mL]	MIC [5] [µg/mL]	MIC, column C [2] [µg/mL]	MIC, column B [1]	MIC, column A [3]	MIC, column D [4]	MIC, column E [5]
COc1ccc2ncc(Cl)c(CCNC3(C(=O)O)CCCN(C4CC(c5cccc(C)c5)C4)CC3)c2c1 (stereo not drawn) [Example 153, 4-{[2-(3-chloro-6-methoxyquinolin-4-yl)ethyl]amino}-1-[3-(3-methylphenyl)cyclobutyl]azepane-4-carboxylic acid]	1 (≈ 1.92 µM)	2 (≈ 3.83 µM)	4 (≈ 7.66 µM)	0.5 (≈ 0.958 µM)	0.5 (≈ 0.958 µM)	–	–	–	–	–
COc1ccc2ncc(F)c(CCCC3(C(=O)O)CCN(C4CC(c5ccccc5)C4)CC3)c2c1 (stereo not drawn) [Example 23, 4-[3-(3-fluoro-6-methoxyquinolin-4-yl)propyl]-1-(3-phenylcyclobutyl)piperidine-4-carboxylic acid]	≤ 0.0625	> 64	≤ 0.0625	≤ 0.0625	≤ 0.0625	–	–	–	–	–
COc1ccc2nccc(C(O)CC[C@@H]3CCN(C4CCC(c5cc(F)ccc5F)C4)C[C@@H]3C(=O)O)c2c1 (stereo partly drawn) [Example 183, (3R,4R)-1-[3-(2,5-difluorophenyl)cyclopentyl]-4-[3-hydroxy-3-(6-methoxyquinolin-4-yl)propyl]piperidine-3-carboxylic acid]	0.25 (≈ 0.477 µM)	8 (≈ 15.2 µM)	2 (≈ 3.81 µM)	0.25 (≈ 0.477 µM)	0.5 (≈ 0.953 µM)	–	–	–	–	–
COc1ccc2ncc(Cl)c(C(O)CC[C@@H]3CCN(C4CC(c5ccccc5)C4)C[C@@H]3C(=O)O)c2c1 (stereo partly drawn) [Example 187, (3R,4R)-4-[3-(3-chloro-6-methoxyquinolin-4-yl)-3-hydroxypropyl]-1-(3-phenylcyclobutyl)piperidine-3-carboxylic acid]	< 0.0625	–	< 0.0625	< 0.0625	< 0.0625	1.00 (≈ 1.96 µM)	–	–	–	–
COc1ccc2ncc(Cl)c(C(O)CC[C@@H]3CCN(C4CC(c5cc(F)ccc5F)C4)C[C@@H]3C(=O)O)c2c1 (stereo partly drawn) [Example 210, (3R,4R)-4-[3-(3-chloro-6-methoxyquinolin-4-yl)-3-hydroxypropyl]-1-[3-(2,5-difluorophenyl)cyclobutyl]piperidine-3-carboxylic acid]	–	–	–	–	–	16.0 (≈ 29.4 µM)	<0.0625 µg/mL	<0.0625 µg/mL	<0.0625 µg/mL	<0.0625 µg/mL
COc1ccc2nccc(C(O)CC[C@@H]3CCN(CC4CC(c5ccccc5)C4)C[C@@H]3C(=O)O)c2c1 (mixture of isomers) [Example 177, (3R,4R)-4-[3-hydroxy-3-(6-methoxyquinolin-4-yl)propyl]-1-[(3-phenylcyclobutyl)methyl]piperidine-3-carboxylic acid]	4	32	8	4	8	–	–	–	–	–
COc1ccc2nccc(C(O)CC[C@@H]3CCN(C4CC(c5ccc(C)cc5)C4)C[C@@H]3C(=O)O)c2c1 (stereo partly drawn) [Example 6, (3R,4R)-4-[3-hydroxy-3-(6-methoxyquinolin-4-yl)propyl]-1-[3-(4-methylphenyl)cyclobutyl]piperidine-3-carboxylic acid]	1 (≈ 2.05 µM)	16 (≈ 32.7 µM)	2 (≈ 4.09 µM)	2 (≈ 4.09 µM)	1 (≈ 2.05 µM)	–	–	–	–	–
COc1ccc2nccc(C(O)CC[C@@H]3CCN(C4CC(c5ccc(OC)c(OC)c5)C4)C[C@@H]3C(=O)O)c2c1 (stereo partly drawn) [Example 32, (3R,4R)-1-[3-(3,4-dimethoxyphenyl)cyclobutyl]-4-[3-hydroxy-3-(6-methoxyquinolin-4-yl)propyl] piperidine-3-carboxylic acid]	> 64	> 64	64 (≈ 120 µM)	64 (≈ 120 µM)	64 (≈ 120 µM)	–	–	–	–	–
COc1ccc2nccc(C(O)CC[C@@H]3CCN(C4CC(c5ccc(O)c(OC)c5)C4)C[C@@H]3C(=O)O)c2c1 (stereo partly drawn) [Example 33, (3R,4R)-1-[3-(4-hydroxy-3-methoxyphenyl)cyclobutyl]-4-[3-hydroxy-3-(6-methoxyquinolin-4-yl)propyl]piperidine-3-carboxylic acid]	> 64	> 64	> 64	> 64	> 64	–	–	–	–	–
COc1ccc2ncc(Cl)c(CCNC3(C(=O)O)CCCN(C4CC(c5c(F)cccc5F)C4)CC3)c2c1 (stereo not drawn) [Example 154, 4-{[2-(3-chloro-6-methoxyquinolin-4-yl)ethyl]amino}-1-[3-(2,6-difluorophenyl)cyclobutyl]azepane-4-carboxylic acid]	0.0625 (≈ 0.115 µM)	4 (≈ 7.35 µM)	0.25 (≈ 0.46 µM)	0.0625 (≈ 0.115 µM)	0.0625 (≈ 0.115 µM)	–	–	–	–	–
COc1ccc2nccc(C(O)CC[C@@H]3CCN(C4CC(c5cc(C)on5)C4)C[C@@H]3C(=O)O)c2c1 (stereo partly drawn) [Example 171, (3R,4R)-4-[3-Hydroxy-3-(6-methoxy-quinolin-4-yl)-propyl}-1-[3-(5-methyl-isoxazol-3-yl)-cyclobutyl]-piperidine-3-carboxylic acid]	8 (≈ 16.7 µM)	16 (≈ 33.4 µM)	16 (≈ 33.4 µM)	8 (≈ 16.7 µM)	8 (≈ 16.7 µM)	–	–	–	–	–
COc1ccc2ncc(Cl)c(C(O)CC[C@@H]3CCN(C4CC(c5cc(F)ccc5F)C4)C[C@@H]3C(=O)O)c2c1 (stereo partly drawn) [Example 209, (3R,4R)-4-[3-(3-chloro-6-methoxyquinolin-4-yl)-3-hydroxypropyl]-1-[3-(2,5-difluorophenyl)cyclobutyl]piperidine-3-carboxylic acid]	–	–	–	–	–	1.00 (≈ 1.83 µM)	<0.0625 µg/mL	<0.0625 µg/mL	<0.0625 µg/mL	<0.0625 µg/mL
COc1ccc2ncc(F)c(C(O)CC[C@@H]3CCN(C4CC(c5c(F)cccc5F)C4)C[C@@H]3C(=O)O)c2c1 (single isomer, unassigned) [Example 19]	–	–	–	–	–	0.5 (≈ 0.946 µM)	<=.0625 μg/ml	<=.0625 μg/ml	<=.0625 μg/ml	<=.0625 μg/ml
COC(=O)[C@H]1CN(C2CC(c3nnc(C)o3)C2)CC[C@H]1CCC(O)c1ccnc2ccc(OC)cc12 (stereo partly drawn) [Example 99, methyl (3R,4R)-4-[3-hydroxy-3-(6-methoxyquinolin-4-yl)propyl]-1-[3-(5-methyl-1,3,4-oxadiazol-2-yl)cyclobutyl]piperidine-3-carboxylate]	16 (≈ 32.3 µM)	> 64	64 (≈ 129 µM)	64 (≈ 129 µM)	> 64	–	–	–	–	–
COc1ccc2nccc([C@@H](O)CC[C@@H]3CCN(C4CC(c5ccc(-c6ccccc6)cc5)C4)C[C@@H]3C(=O)O)c2c1 (stereo partly drawn) [Example 41, (3R,4R)-1-(3-biphenyl-4-ylcyclobutyl)-4-[(3S)-3-hydroxy-3-(6-methoxyquinolin-4-yl)propyl] piperidine-3-carboxylic acid]	> 64	> 64	> 64	> 64	> 64	–	–	–	–	–
COc1ccc2nccc(C(O)CC[C@@H]3CCN(CC4CC(c5ccccc5)C4)C[C@@H]3C(=O)O)c2c1 (stereo partly drawn) [Example 178, (3R,4R)-4-[3-hydroxy-3-(6-methoxyquinolin-4-yl)propyl]-1-[(3-phenylcyclobutyl)methyl]piperidine-3-carboxylic acid]	–	–	–	–	–	32.0 (≈ 65.5 µM)	2.00 µg/mL (≈ 4.09 µM)	8.00 µg/mL (≈ 16.4 µM)	2.00 µg/mL (≈ 4.09 µM)	4.00 µg/mL (≈ 8.19 µM)
COc1ccc2nccc([C@@H](O)CC[C@@H]3CCN(C4CC(c5c(F)cccc5F)C4(C)C)C[C@@H]3C(=O)O)c2c1 (stereo partly drawn) [Example 200, (3R,4R)-1-[3-(2,6-difluorophenyl)-2,2-dimethylcyclobutyl]-4-[(3S)-3-hydroxy-3-(6-methoxyquinolin-4-yl)propyl]piperidine-3-carboxylic acid]	8 (≈ 14.9 µM)	> 64	32 (≈ 59.4 µM)	8 (≈ 14.9 µM)	8 (≈ 14.9 µM)	–	–	–	–	–
COc1ccc2nccc(C(O)CC[C@@H]3CCN(C4CC(Cc5ccccc5)C4)C[C@@H]3C(=O)O)c2c1 (stereo partly drawn) [Example 103, (3R,4R)-1-(3-benzylcyclobutyl)-4-[3-hydroxy-3-(6-methoxyquinolin-4-yl)propyl]piperidine-3-carboxylic acid]	0.25 (≈ 0.512 µM)	4 (≈ 8.19 µM)	0.5 (≈ 1.02 µM)	0.25 (≈ 0.512 µM)	0.25 (≈ 0.512 µM)	–	–	–	–	–
